Data as given in patent US20220323406A1, “METHODS AND COMPOSITIONS FOR DIFFERENTIATING STEM CELLS” (Massachusetts Institute of Technology, priority 2019, published 2022).

Assays:
ENR+CD organoids = test: Primary screen: ATP (CellTiter-Glo 3D, CTG) cell number/viability, 2.5-D 384-well ENR+CD organoids; details: primary screen; for Z.CTG: standard z score;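 on all read-outs here: compounds given at plating and again on day 3 over a 6-day differentiation from ENR+CV stem-cell-enriched precursors, ATP measured on day 6, plate median as control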
[1] = test system: ENR+CD organoids (ISC to Paneth cell differentiation); test: Primary screen: CCh-stimulated lysozyme secretion LYZ.S, 2.5-D 384-well ENR+CD organoid differentiation; assay type: cell-based, mouse; details: primary screen
From the text: (§1) High-throughput screening.

[2] = test system: ENR+CD organoids (ISC to Paneth cell differentiation); test: Primary screen: basal (non-stimulated) lysozyme secretion LYZ.NS, 2.5-D 384-well ENR+CD organoid differentiation; assay type: cell-based, mouse; details: primary screen; for Z.LYZ.NS: standard z score
From the text: as §1

[3] = dose 0.08 uM, FC vs plate median
[4] = dose 0.40 uM, FC vs plate median
[5] = dose 2.00 uM, FC vs plate median
[6] = dose 10.00 uM, FC vs plate median
[7] = 1st dose row of the treatment (0.08 uM by row order; dose not reprinted)
[8] = 2nd dose row of the treatment (0.40 uM by row order; dose not reprinted)
[9] = 3rd dose row of the treatment (2.00 uM by row order; dose not reprinted)
[10] = 4th dose row of the treatment (10.00 uM by row order; dose not reprinted)

N#CC1(c2ccc(NC(=O)c3cccnc3NCc3ccncc3)cc2)CCCC1 [Apatinib]
Dose.FC.CTG (ENR+CD organoids; dose 0.08 uM): 0.223 log2 fold change
Dose.FC.CTG (ENR+CD organoids; dose 0.40 uM): 0.302 log2 fold change
Dose.FC.CTG (ENR+CD organoids; dose 2.00 uM): 0.270 log2 fold change
Dose.FC.CTG (ENR+CD organoids; dose 10.00 uM): 0.218 log2 fold change
Dose.FC.LYZ.S ([1]; dose 0.08 uM): 0.173 log2 fold change
Dose.FC.LYZ.S ([1]; dose 0.40 uM): 0.142 log2 fold change
Dose.FC.LYZ.S ([1]; dose 2.00 uM): 0.112 log2 fold change
Dose.FC.LYZ.S ([1]; dose 10.00 uM): 0.075 log2 fold change
Dose.FC.LYZ.NS ([2]; dose 0.08 uM): 0.103 log2 fold change
Z.LYZ.NS (standard z score) ([2]; dose 0.08 uM): 0.897
Dose.FC.LYZ.NS ([2]; dose 0.40 uM): 0.038 log2 fold change
Z.LYZ.NS (standard z score) ([2]; dose 0.40 uM): 0.327
Dose.FC.LYZ.NS ([2]; dose 2.00 uM): 0.076 log2 fold change
Z.LYZ.NS (standard z score) ([2]; dose 2.00 uM): 0.660
Dose.FC.LYZ.NS ([2]; dose 10.00 uM): 0.012 log2 fold change
Z.LYZ.NS (standard z score) ([2]; dose 10.00 uM): 0.101

O=C(O)CNC(=O)c1c(O)c2ccccc2n(Cc2ccccc2)c1=O [IOX2]
Dose.FC.CTG (log2 fold change) (ENR+CD organoids; dose 0.08 uM): 0.149
Z.CTG (standard z score) (ENR+CD organoids; dose 0.08 uM): 0.356
Dose.FC.CTG (log2 fold change) (ENR+CD organoids; dose 0.40 uM): 0.078
Z.CTG (standard z score) (ENR+CD organoids; dose 0.40 uM): 0.185
Dose.FC.CTG (log2 fold change) (ENR+CD organoids; dose 2.00 uM): 0.097
Z.CTG (standard z score) (ENR+CD organoids; dose 2.00 uM): 0.232
Dose.FC.CTG (log2 fold change) (ENR+CD organoids; dose 10.00 uM): 0.001
Z.CTG (standard z score) (ENR+CD organoids; dose 10.00 uM): 0.002
Dose.FC.LYZ.S (log2 fold change) ([1]; dose 0.08 uM): 0.047
Dose.FC.LYZ.S (log2 fold change) ([1]; dose 0.40 uM): 0.071
Dose.FC.LYZ.S (log2 fold change) ([1]; dose 2.00 uM): 0.001
Dose.FC.LYZ.S (log2 fold change) ([1]; dose 10.00 uM): −0.049
Dose.FC.LYZ.NS (log2 fold change) ([2]; dose 0.08 uM): 0.029
Z.LYZ.NS (standard z score) ([2]; dose 0.08 uM): 0.254
Dose.FC.LYZ.NS (log2 fold change) ([2]; dose 0.40 uM): 0.028
Z.LYZ.NS (standard z score) ([2]; dose 0.40 uM): 0.246
Dose.FC.LYZ.NS (log2 fold change) ([2]; dose 2.00 uM): 0.043
Z.LYZ.NS (standard z score) ([2]; dose 2.00 uM): 0.376
Dose.FC.LYZ.NS (log2 fold change) ([2]; dose 10.00 uM): −0.045
Z.LYZ.NS (standard z score) ([2]; dose 10.00 uM): −0.388

Oc1cc(O)cc(/C=C/c2ccc(O)c(O)c2)c1 [Piceatannol]
Dose.FC.CTG (ENR+CD organoids; [3]): 0.232 log2 fold change
Dose.FC.CTG (ENR+CD organoids; [4]): −0.090 log2 fold change
Dose.FC.CTG (ENR+CD organoids; [5]): 0.074 log2 fold change
Dose.FC.CTG (ENR+CD organoids; [6]): −0.071 log2 fold change
Dose.FC.LYZ.S [1, 3]: 0.094 log2 fold change
Dose.FC.LYZ.S [1, 4]: 0.045 log2 fold change
Dose.FC.LYZ.S [1, 5]: 0.016 log2 fold change
Dose.FC.LYZ.S [1, 6]: −0.104 log2 fold change
Z.LYZ.NS ([2]; dose 0.08 uM): 0.698
Z.LYZ.NS ([2]; dose 0.40 uM): 0.375
Z.LYZ.NS ([2]; dose 2.00 uM): 0.221
Z.LYZ.NS ([2]; dose 10.00 uM): −0.184
Dose.FC.LYZ.NS [2, 3]: 0.080 log2 fold change
Dose.FC.LYZ.NS [2, 4]: 0.043 log2 fold change
Dose.FC.LYZ.NS [2, 5]: 0.025 log2 fold change
Dose.FC.LYZ.NS [2, 6]: −0.021 log2 fold change

CN1CCc2cc3c(cc2[C@H]1[C@@H]1OC(=O)c2c1ccc1c2OCO1)OCO3 [(+)-Bicuculline]
SSMD.CTG.Rep (strictly standardized mean difference) (ENR+CD organoids; [7]): 0.472
SSMD.CTG.Rep (strictly standardized mean difference) (ENR+CD organoids; [8]): −0.078
SSMD.CTG.Rep (strictly standardized mean difference) (ENR+CD organoids; [9]): −0.237
SSMD.CTG.Rep (strictly standardized mean difference) (ENR+CD organoids; [10]): −0.405
Dose.FC.CTG (ENR+CD organoids; dose 0.08 uM): 0.318 log2 fold change
Z.CTG (standard z score) (ENR+CD organoids; dose 0.08 uM): 0.760
Dose.FC.CTG (ENR+CD organoids; dose 0.40 uM): −0.029 log2 fold change
Z.CTG (standard z score) (ENR+CD organoids; dose 0.40 uM): −0.069
Dose.FC.CTG (ENR+CD organoids; dose 2.00 uM): −0.166 log2 fold change
Z.CTG (standard z score) (ENR+CD organoids; dose 2.00 uM): −0.396
Dose.FC.CTG (ENR+CD organoids; dose 10.00 uM): −0.132 log2 fold change
Z.CTG (standard z score) (ENR+CD organoids; dose 10.00 uM): −0.315
SSMD.LYZ.S_Rep (strictly standardized mean difference) [1, 7]: 0.545
Z.LYZ.S (standard z score) [1, 7]: 1.005
SSMD.LYZ.S_Rep (strictly standardized mean difference) [1, 8]: 0.216
Z.LYZ.S (standard z score) [1, 8]: 0.221
SSMD.LYZ.S_Rep (strictly standardized mean difference) [1, 9]: −0.164
Z.LYZ.S (standard z score) [1, 9]: −0.169
SSMD.LYZ.S_Rep (strictly standardized mean difference) [1, 10]: 0.264
Z.LYZ.S (standard z score) [1, 10]: 0.465
Dose.FC.LYZ.S ([1]; dose 0.08 uM): 0.155 log2 fold change
Dose.FC.LYZ.S ([1]; dose 0.40 uM): 0.034 log2 fold change
Dose.FC.LYZ.S ([1]; dose 2.00 uM): −0.026 log2 fold change
Dose.FC.LYZ.S ([1]; dose 10.00 uM): 0.072 log2 fold change
SSMD.LYZ.NS_Rep (strictly standardized mean difference) [2, 7]: 0.481
SSMD.LYZ.NS_Rep (strictly standardized mean difference) [2, 8]: 0.106
SSMD.LYZ.NS_Rep (strictly standardized mean difference) [2, 9]: 0.276
SSMD.LYZ.NS_Rep (strictly standardized mean difference) [2, 10]: 0.175
Dose.FC.LYZ.NS ([2]; dose 0.08 uM): 0.092 log2 fold change
Z.LYZ.NS (standard z score) ([2]; dose 0.08 uM): 0.805
Dose.FC.LYZ.NS ([2]; dose 0.40 uM): 0.013 log2 fold change
Z.LYZ.NS (standard z score) ([2]; dose 0.40 uM): 0.116
Dose.FC.LYZ.NS ([2]; dose 2.00 uM): 0.031 log2 fold change
Z.LYZ.NS (standard z score) ([2]; dose 2.00 uM): 0.270
Dose.FC.LYZ.NS ([2]; dose 10.00 uM): 0.020 log2 fold change
Z.LYZ.NS (standard z score) ([2]; dose 10.00 uM): 0.176

NCC(=O)Nc1ccc(-n2nc(C(F)(F)F)cc2-c2ccc3c(ccc4ccccc43)c2)cc1 [OSU-03012 (AR-12)]
Z.CTG (ENR+CD organoids; dose 0.08 uM): 0.491
Z.CTG (ENR+CD organoids; dose 0.40 uM): 0.272
Z.CTG (ENR+CD organoids; dose 2.00 uM): 0.556
Z.CTG (ENR+CD organoids; dose 10.00 uM): 0.185
Dose.FC.CTG (ENR+CD organoids; [3]): 0.205 log2 fold change
Dose.FC.CTG (ENR+CD organoids; [4]): 0.114 log2 fold change
Dose.FC.CTG (ENR+CD organoids; [5]): 0.233 log2 fold change
Dose.FC.CTG (ENR+CD organoids; [6]): 0.078 log2 fold change
Dose.FC.LYZ.S [1, 3]: 0.126 log2 fold change
Dose.FC.LYZ.S [1, 4]: 0.113 log2 fold change
Dose.FC.LYZ.S [1, 5]: 0.060 log2 fold change
Dose.FC.LYZ.S [1, 6]: −0.128 log2 fold change
Z.LYZ.NS ([2]; dose 0.08 uM): 0.755
Z.LYZ.NS ([2]; dose 0.40 uM): 0.285
Z.LYZ.NS ([2]; dose 2.00 uM): 0.460
Z.LYZ.NS ([2]; dose 10.00 uM): −0.423
Dose.FC.LYZ.NS [2, 3]: 0.087 log2 fold change
Dose.FC.LYZ.NS [2, 4]: 0.033 log2 fold change
Dose.FC.LYZ.NS [2, 5]: 0.053 log2 fold change
Dose.FC.LYZ.NS [2, 6]: −0.049 log2 fold change
